Assay results from patent US20220280594A1, “APPLICATION OF POLYPEPTIDE OR DERIVATIVE THEREOF” (CHENGDU HUITAI BIOMEDICINE CO., LTD., priority 2019, published 2022).
Ends that are not written are not given here. PEG = not defined here

Tests used:
Type in all cases: cell-based
[1] = system: human liver cancer cells (HepG2); assay: scratch assay, migration of HepG2 cells; details: HepG2, 10 μM, 48 hours; control group 71.01 ± 6.63
How it was run: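 HepG2 monolayers scratched, then cultured 48 h in 2% FBS medium with test polypeptides at 10 μM versus PBS control, triplicate wells. Migration rate (%) computed from original versus current scratch width in images.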

[2] = system: human pharyngeal squamous-cell carcinoma cells (Fadu); assay: scratch assay, migration of Fadu cells; details: 10 μM, 48 hours, control group 28.76 ± 4.08
How it was run: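 Confluent Fadu monolayers scratched, then cultured 48 h with 10 μM polypeptide in medium with 2% FBS; PBS control, triplicate wells. Migration rate (%) = (original − current scratch width)/original width × 100, from ≥3 images per well.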

[3] = system: human pancreatic cancer cells (PANC-1); assay: transwell invasion assay, PANC-1 cells; details: PANC-1 transwell invasion, 10 μM, 24 hours; control group 727 ± 68
How it was run: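 Serum-free PANC-1 cells were seeded in matrigel-coated upper chambers with complete medium below. After 4-5 hours at 37° C., peptide was added at 10 μM final. Following 24 hours, invaded cells on the lower membrane surface were fixed, crystal violet-stained, imaged and counted against untreated controls.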

[4] = system: human prostate cancer cells (22RV1); assay: scratch assay, migration of 22RV1 cells; details: 22RV1, 10 μM, 48 hours; control group 25.41 ± 5.01
How it was run: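 22RV1 monolayers (seeded 1-2×10^5 cells/well) were scratched, washed, then given 2% FBS medium with 10 μM polypeptide or PBS, triplicate wells, for 48 h. Migration rate (%) = (original − current scratch width)/original width ×100, from ≥3 images per well.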

[5] = system: human breast cancer cells (MCF-7); assay: scratch assay, migration of MCF-7 cells; details: MCF-7, 10 μM, 48 hours; control group 30.97 ± 1.79
How it was run: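 MCF-7 monolayers scratched, then cultured 48 hours in 2% FBS medium with test peptide at 10 μM versus PBS control, triplicate wells. Migration rate (%) = (original − current scratch width)/original width × 100, measured from images.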

[6] = system: human pancreatic cancer cells (PANC-1); assay: scratch assay, migration of PANC-1 cells; details: PANC-1, 10 μM, 48 hours; control group 66.65 ± 3.37
How it was run: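 PANC-1 monolayers were scratched, then cultured for 48 h with 10 μM test compound in 2% FBS medium, in three parallel wells per group against a PBS control. Migration rate (%) was calculated as (original minus current scratch width) / original width × 100, from imaged wells.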

[7] = system: human breast cancer cells (MDA-MB-231); assay: scratch assay, migration of MDA-MB-231 cells; details: MDA-MB-231, 10 μM, 48 hours; control group 36.19 ± 5.15
How it was run: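 MDA-MB-231 monolayers (1-2×10^5 cells/well) were scratched, then kept 48 h in medium with 2% FBS containing polypeptide at 10 μM, with a PBS control, in triplicate wells. Migration rate (%) was taken from scratch width: (original − current)/original ×100.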

[8] = system: human liver adenocarcinoma cells (SK-HEP-1); assay: transwell invasion assay, SK-HEP-1 cells; details: SK-HEP-1 transwell invasion, 10 μM, 24 hours; control group 767 ± 91
How it was run: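 Serum-free SK-HEP-1 cells were seeded in matrigel-coated upper chambers over complete medium. After 4-5 h, peptide was added to the upper chamber at 10 μM final. Following 24 h at 37° C., invaded cells were fixed, crystal violet-stained, imaged and counted.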

[9] = system: human melanoma cells (A375); assay: scratch assay, migration of A375 cells; details: A375, 10 μM, 48 hours; control group 44.03 ± 6.21
How it was run: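 Monolayers scratched, washed with PBS and cultured 48 hours in 2% FBS medium with polypeptides N1-N54 at 10 μM or PBS control, three wells per group. Migration rate (%) = (original − current scratch width)/original width×100, from imaged scratch widths.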

[10] = system: human colon cancer cells (HCT-116); assay: scratch assay, migration of HCT-116 cells; details: HCT-116, 10 μM, 48 hours; control group 47.78 ± 6.07
How it was run: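 Confluent HCT-116 monolayers were scratched, washed and cultured 48 h in 2% FBS medium with peptide at 10 μM versus PBS control, triplicate wells. Migration rate (%) = (original minus current scratch width)/original width × 100, from at least 3 images per well.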

| Substance | Migration rate (%) (mean ± SD, P) [1] | Migration rate (%) (mean ± SD, P) [2] | Number of cells (mean ± SD, P), invaded cells [3] | Migration rate (%) (mean ± SD, P) [4] | Migration rate (%) (mean ± SD, P) [5] | Migration rate (%) (mean ± SD, P) [6] | Migration rate (%) (mean ± SD, P) [7] | Number of cells (mean ± SD, P), invaded cells [8] | Migration rate (%) (mean ± SD, P) [9] | Migration rate (%) (mean ± SD, P) [10] |
| --- | --- | --- | --- | --- | --- | --- | --- | --- | --- | --- |
| N26: SEQ ID NO: 1 with substitution A15R, addition of one amino acid at the amino terminal and one at the carboxyl terminal (FYRVRFLAKENVTQDREDNC) | 16.86 ± 7.90,*** % | 13.70 ± 4.57,** % | 231 ± 18,**** | 11.42 ± 2.08,* % | 10.43 ± 3.34,** % | 26.65 ± 6.37,*** % | 19.02 ± 5.06,* % | 371 ± 27,*** | 12.23 ± 2.48,*** % | 9.81 ± 2.92,*** % |
| N33: SEQ ID NO: 1 with deletion of positions 1-5, addition of one amino acid and PEG modification at the carboxyl terminal (LAKENVTQDAEDNC-{PEG}; reading uncertain) | 19.27 ± 8.14,*** % | 10.28 ± 2.06,** % | 345 ± 27,*** | 10.03 ± 2.15,* % | 18.97 ± 2.44,* % | 39.27 ± 3.14,* % | 22.68 ± 3.02,* % | 197 ± 32,**** | 9.98 ± 3.11,*** % | 12.85 ± 3.12,*** % |
| N18: SEQ ID NO: 1 with addition of one amino acid at the amino terminal and one at the carboxyl terminal (FYRVRFLAKENVTQDAEDNC) | 48.73 ± 3.52,** % | 6.29 ± 2.62,*** % | 118 ± 14,**** | 6.75 ± 3.22,** % | 10.40 ± 2.72,** % | 13.26 ± 7.39,*** % | 18.64 ± 6.98,* % | 262 ± 21,**** | 12.67 ± 1.33,*** % | 16.96 ± 4.87,** % |
